According to PubChem BioAssay (NCI):
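Where inhibition never reached the appropriate level, the endpoint shown equals the highest concentration tested. Otherwise, values were interpolated linearly from a five-concentration, 48-hour dose response in 96-well plates. TGI: total growth inhibition.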

Key:
Assay in all cases: DTP human tumour cell line panel, 48 h
HL-60(TB) leukemia = test system: HL-60(TB) leukemia
SK-OV-3 ovarian = test system: SK-OV-3 ovarian
HCT-15 colon = test system: HCT-15 colon
SF-268 CNS = test system: SF-268 CNS
HT29 colon = test system: HT29 colon
LOX IMVI melanoma = test system: LOX IMVI melanoma
ACHN renal = test system: ACHN renal
SNB-19 CNS = test system: SNB-19 CNS
NCI-H226 lung = test system: NCI-H226 lung
OVCAR-4 ovarian = test system: OVCAR-4 ovarian
HOP-92 NSCLC = test system: HOP-92 NSCLC
UACC-257 melanoma = test system: UACC-257 melanoma
IGROV1 ovarian = test system: IGROV1 ovarian
SW-620 colon = test system: SW-620 colon
SK-MEL-2 melanoma = test system: SK-MEL-2 melanoma
M14 melanoma = test system: M14 melanoma
EKVX NSCLC = test system: EKVX NSCLC
BT-549 breast = test system: BT-549 breast
A549 NSCLC = test system: A549 NSCLC
SK-MEL-28 melanoma = test system: SK-MEL-28 melanoma

CCCO[C@@H]1[C@@H](OC(C)=O)[C@@H](OC(C)=O)C(C)(C)/C=C/[C@H](C)C(=O)[C@@]2(OC(C)=O)C[C@@](C)(OC(C)=O)[C@H](OC(C)=O)[C@@H]2[C@H]2OC(=O)CC[C@@]12OC(=O)c1ccccc1 showed a TGI (HL-60(TB) leukemia) greater than 25 µM, a TGI (SK-OV-3 ovarian) greater than 25 µM and a TGI (HCT-15 colon) greater than 25 µM. The TGI (SF-268 CNS) was greater than 25 µM, the TGI (HT29 colon) was greater than 25 µM and the TGI (LOX IMVI melanoma) was greater than 25 µM. The TGI (ACHN renal) was greater than 25 µM, the TGI (SNB-19 CNS) was greater than 25 µM and the TGI (NCI-H226 lung) was greater than 25 µM. It also gave a TGI (OVCAR-4 ovarian) greater than 25 µM, a TGI (HOP-92 NSCLC) greater than 25 µM and a TGI (UACC-257 melanoma) greater than 25 µM. It also gave a TGI (IGROV1 ovarian) greater than 25 µM, a TGI (SW-620 colon) greater than 25 µM and a TGI (SK-MEL-2 melanoma) greater than 25 µM. It also gave a TGI (M14 melanoma) greater than 25 µM, a TGI (EKVX NSCLC) greater than 25 µM and a TGI (BT-549 breast) greater than 25 µM.

With COc1ccc(/C=N/n2cnc3c(c2=O)SC(=C(C#N)C#N)N3c2ccccc2)cc1 the TGI (HL-60(TB) leukemia) was greater than 100 µM, the TGI (A549 NSCLC) was greater than 100 µM and the TGI (SK-OV-3 ovarian) was greater than 100 µM. The TGI (SF-268 CNS) was greater than 100 µM, the TGI (HT29 colon) was greater than 100 µM and the TGI (ACHN renal) was greater than 100 µM. The TGI (SNB-19 CNS) was greater than 100 µM, the TGI (NCI-H226 lung) was greater than 100 µM and the TGI (SK-MEL-28 melanoma) was greater than 100 µM. The TGI (HOP-92 NSCLC) was greater than 100 µM, the TGI (UACC-257 melanoma) was greater than 100 µM and the TGI (IGROV1 ovarian) was greater than 100 µM. The TGI (SW-620 colon) was greater than 100 µM.

Molecule Nc1nc(SCc2ccccc2Cl)c2[nH]cnc2n1 has a TGI (HL-60(TB) leukemia) greater than 100 µM, a TGI (A549 NSCLC) greater than 100 µM and a TGI (SK-OV-3 ovarian) greater than 100 µM. It also gave a TGI (HCT-15 colon) greater than 100 µM, a TGI (SF-268 CNS) greater than 100 µM and a TGI (LOX IMVI melanoma) greater than 100 µM. The TGI (ACHN renal) was greater than 100 µM, the TGI (SNB-19 CNS) was greater than 100 µM and the TGI (SK-MEL-28 melanoma) was greater than 100 µM. For the same molecule, the TGI (UACC-257 melanoma) was greater than 100 µM, the TGI (IGROV1 ovarian) was greater than 100 µM and the TGI (SW-620 colon) was greater than 100 µM. It also gave a TGI (SK-MEL-2 melanoma) greater than 100 µM, a TGI (M14 melanoma) greater than 100 µM and a TGI (EKVX NSCLC) greater than 100 µM.

Cc1nc2ccc(S(=O)(=O)Nc3nccs3)cc2c(=O)n1NS(=O)(=O)c1nccs1 was tested, and the TGI (HL-60(TB) leukemia) was greater than 100 µM, the TGI (SK-OV-3 ovarian) was greater than 100 µM and the TGI (HCT-15 colon) was greater than 100 µM. For the same molecule, the TGI (SF-268 CNS) was greater than 100 µM, the TGI (HT29 colon) was greater than 100 µM and the TGI (ACHN renal) was greater than 100 µM. For the same molecule, the TGI (SNB-19 CNS) was greater than 100 µM, the TGI (NCI-H226 lung) was greater than 100 µM and the TGI (SK-MEL-28 melanoma) was greater than 100 µM. It also gave a TGI (OVCAR-4 ovarian) greater than 100 µM, a TGI (HOP-92 NSCLC) greater than 100 µM and a TGI (UACC-257 melanoma) greater than 100 µM. For the same molecule, the TGI (IGROV1 ovarian) was greater than 100 µM, the TGI (SW-620 colon) was greater than 100 µM and the TGI (SK-MEL-2 melanoma) was greater than 100 µM. It also gave a TGI (M14 melanoma) greater than 100 µM, a TGI (EKVX NSCLC) greater than 100 µM and a TGI (BT-549 breast) greater than 100 µM.

Molecule CCOC(=O)c1sc2nc(SC)nc(Nc3ccc4c(c3)OCCO4)c2c1N has a TGI (HL-60(TB) leukemia) greater than 100 µM, a TGI (A549 NSCLC) greater than 100 µM and a TGI (SF-268 CNS) of 20.4 µM. It also gave a TGI (HT29 colon) of 53.3 µM, a TGI (LOX IMVI melanoma) greater than 100 µM and a TGI (ACHN renal) of 19.8 µM. The TGI (SNB-19 CNS) was greater than 100 µM, the TGI (NCI-H226 lung) was greater than 100 µM and the TGI (SK-MEL-28 melanoma) was greater than 100 µM. It also gave a TGI (OVCAR-4 ovarian) of 30.8 µM, a TGI (HOP-92 NSCLC) of 27.4 µM and a TGI (UACC-257 melanoma) greater than 100 µM. For the same molecule, the TGI (IGROV1 ovarian) was 78.6 µM, the TGI (SW-620 colon) was greater than 100 µM and the TGI (SK-MEL-2 melanoma) was 33.7 µM. It also gave a TGI (M14 melanoma) of 31.7 µM, a TGI (EKVX NSCLC) of 26.6 µM and a TGI (BT-549 breast) of 32 µM.

With CCCCC1C=Cn2c(=O)oc3c(OC(C)C)c(C)c(O)c1c32 (stereo unspecified) the TGI (HL-60(TB) leukemia) was 1.88 µM, the TGI (A549 NSCLC) was 6.97 µM and the TGI (SK-OV-3 ovarian) was 13.3 µM. It also gave a TGI (HCT-15 colon) of 12.4 µM, a TGI (SF-268 CNS) of 13.2 µM and a TGI (HT29 colon) of 11.7 µM. The TGI (LOX IMVI melanoma) was 5.52 µM, the TGI (ACHN renal) was 3.35 µM and the TGI (SNB-19 CNS) was 13.3 µM. It also gave a TGI (NCI-H226 lung) of 8.12 µM, a TGI (SK-MEL-28 melanoma) of 8.33 µM and a TGI (OVCAR-4 ovarian) of 2.37 µM. It also gave a TGI (HOP-92 NSCLC) of 12.2 µM, a TGI (UACC-257 melanoma) of 8.78 µM and a TGI (IGROV1 ovarian) of 10.1 µM. The TGI (SW-620 colon) was 11.9 µM, the TGI (SK-MEL-2 melanoma) was 5.07 µM and the TGI (M14 melanoma) was 3.15 µM. For the same molecule, the TGI (EKVX NSCLC) was 6.83 µM and the TGI (BT-549 breast) was 13.4 µM.

For CNC(C)C(O)c1ccc2oc3cc(=O)c4ccccc4c-3nc2c1 (stereo unspecified), the TGI (HL-60(TB) leukemia) was greater than 100 µM, the TGI (A549 NSCLC) was greater than 100 µM and the TGI (SK-OV-3 ovarian) was greater than 100 µM. It also gave a TGI (HCT-15 colon) greater than 100 µM, a TGI (SF-268 CNS) greater than 100 µM and a TGI (HT29 colon) greater than 100 µM. It also gave a TGI (LOX IMVI melanoma) of 26.7 µM, a TGI (ACHN renal) of 57.9 µM and a TGI (SNB-19 CNS) greater than 100 µM. For the same molecule, the TGI (SK-MEL-28 melanoma) was 27.6 µM, the TGI (OVCAR-4 ovarian) was 36.6 µM and the TGI (HOP-92 NSCLC) was greater than 100 µM. The TGI (UACC-257 melanoma) was 33.4 µM, the TGI (IGROV1 ovarian) was greater than 100 µM and the TGI (SW-620 colon) was greater than 100 µM. It also gave a TGI (SK-MEL-2 melanoma) of 64.2 µM, a TGI (M14 melanoma) of 16.1 µM and a TGI (EKVX NSCLC) greater than 100 µM. It also gave a TGI (BT-549 breast) greater than 100 µM.

Work on O=C1c2ccccc2OCC12OC21C=CC(Cl)=CC1 (stereo unspecified) yielded a TGI (HL-60(TB) leukemia) of 37.3 µM, a TGI (A549 NSCLC) of 56.6 µM and a TGI (SK-OV-3 ovarian) greater than 100 µM. It also gave a TGI (HCT-15 colon) of 86.5 µM, a TGI (SF-268 CNS) greater than 100 µM and a TGI (HT29 colon) of 36.5 µM. It also gave a TGI (LOX IMVI melanoma) of 30.4 µM, a TGI (ACHN renal) greater than 100 µM and a TGI (SNB-19 CNS) of 80.3 µM. For the same molecule, the TGI (NCI-H226 lung) was greater than 100 µM, the TGI (SK-MEL-28 melanoma) was 67.4 µM and the TGI (OVCAR-4 ovarian) was 46.4 µM. The TGI (HOP-92 NSCLC) was greater than 100 µM, the TGI (UACC-257 melanoma) was greater than 100 µM and the TGI (IGROV1 ovarian) was greater than 100 µM. It also gave a TGI (SW-620 colon) greater than 100 µM, a TGI (SK-MEL-2 melanoma) of 59.1 µM and a TGI (M14 melanoma) greater than 100 µM. For the same molecule, the TGI (EKVX NSCLC) was 51.8 µM and the TGI (BT-549 breast) was 83.7 µM.
